# According to US20220400703A1, “FORMULATIONS FOR TREATMENT OF VIBRIO INFECTIONS” (ARIZONA BOARD OF REGENTS ON BEHALF OF THE UNIVERSITY OF …, priority 2019, published 2022):
# “And” between values parts separate entries of the source, which are not always exact repeats. Equal entries are not always repeated. “Also recorded” adds a separate entry of the source.
# What was measured:
# [1] = tested on: VPAHPND (13-028/A3), AHPND-causing Vibrio parahaemolyticus; experiment: Paper disk diffusion assay; assay type: cell-based; conditions: mean ± SD; for Average diameter of inhibitory zone (mm) CNE 1/16: extract concentration 1/16 (v/v); for Average diameter of inhibitory zone (mm) CNE 1/16 / Average diameter of inhibitory zone (mm) CNE ¼ / Average diameter of inhibitory zone (mm) CNE ½ / Average diameter of inhibitory zone (mm) CNE ⅛: ND: not detected, <7 mm = no antimicrobial activity; for Average diameter of inhibitory zone (mm) CNE ¼: extract concentration ¼ (v/v); for Average diameter of inhibitory zone (mm) CNE ½: extract concentration ½ (v/v), 2 μL on paper disk, TSA+, 28° C., 24 hr; for Average diameter of inhibitory zone (mm) CNE ⅛: extract concentration ⅛ (v/v)
# Protocol: (§1) VPAHPND (13-028/A3) was revived from glycerol stock kept in −80 degrees C. in Aquaculture Pathology Laboratory following a previous publication (Han et al., 2015). Briefly, 800 mL of Tryptic Soy Broth (TSB) containing 2% NaCl (TSB+) medium was prepared and autoclaved. The bacterial stock was thawed on ice and briefly vortexed before transferring 250 μl of the bacterial culture to 5 ml TSB+ in a 50 ml flask. The flask was incubated at 28 degrees C. in a shaker incubator (CORNING, Model LSE) (120 rpm) for 2 h. After the incubation, the broth was transferred into 50 ml TSB+ in a 250 ml flask before incubating at 28 degrees C. in a shaker incubator (120 rpm) for 2 h. After 2 h., the bacterial culture was mixed with 300 ml TSB and incubated for 24 h at 28 degrees C. After 24 h, the optical density (OD) of the culture was measured at 600 nm. Under these culture conditions, the OD values should exceed 2.8. The broth was diluted to 1×10^7 CFU/ml based on the OD reading. A 10-fold serial dilution of the bacterial culture was prepared and the live bacterial count upon overnight growth was determined by plating the culture on Tryptic Soy Agar (TSA) containing 2% NaCl (TSA+) plates.
# The antibacterial activities of the NEs were tested using a paper disk diffusion assay following a previously published method with some modifications (Mith et al., 2014). Briefly, the extracts were diluted with fish oil (NE01-NE013) or DMSO (NE14 to NE18) at the following concentrations: 1:1, 1:2, 1:4, and 1:8. The VPAHPND (13-028/A3) culture lawns were created on TSA+plates by thoroughly streaking the culture over the entire surface of the plate with a cotton swab. Meanwhile, 2 μL of each concentration of the NEs was soaked on to a paper disk for 15 min before placing in the center of the bacteria inoculated TSA+plates. Fish oil and DMSO were used as controls. For each dilution of the NE two replicates were done. The plates were then incubated at 28° C. for 24 hr. The efficacy of the extract in inhibiting bacterial growth was determined by measuring the diameter of clear zones for each concentration to the nearest millimeter (mm). The diameter of the inhibitory zone <7 mm was considered as having no antimicrobial activity (Mith et al., 2014). The experiments were repeated four times for all 18 NEs, and the average was taken to calculate the diameter of the inhibitory zone.
# [2] = tested on: Vibrio parahaemolyticus (Strain A3); experiment: Minimum inhibitory concentration (MIC) assay in liquid culture (OD600 and colony count); assay type: cell-based; conditions: for OD600: 24 hr; for MIC assay results: effective concentration (Example 1): Example 1, liquid culture; for MIC (Example 2): TSB+ liquid culture, OD600 and colony count, 24 h and 48 h; for Extract concentration at which bacterial count is zero / no survivors: viable colony count at 48 h on TSA+ plates
# Protocol: Absorbance (OD600) and total colony count (upon plating overnight culture grown in the presence of natural extracts) were employed for screening.
# as §1
# Initially extracts were diluted up to 50% with diluent fish oil, then a serial dilution of extracts was prepared Concentrations of extracts range between [0.3-0.0937% (v/v)], which was prepared in TSB+ (Tryptic soy broth) medium. The culture medium TSB+ (2 ml) containing NEs was inoculated with 100 μL (approx. 1×10^7 CFU/mL) of an overnight culture of the pathogen and briefly mixed by vortexing before incubating at 28 degrees C. The OD600 values was recorded at 12, 24 and 48 h post-incubation (FIG. 9). In addition, at each time point and for each concentration of the NEs, aliquots of bacterial suspension were inoculated on TSA+plate before incubating overnight at 28 degrees C. The MIC for each NE was determined by recording OD600 values and taking bacterial count. For each NE, the MIC assay was repeated three times on different days, and the average OD600 value was taken to determine the MIC for each concentration of a corresponding NE.
# [3] = tested on: VPAHPND cells; experiment: Scanning electron microscopy of NE treated VPAHPND cells; assay type: cell-based, Vibrio parahaemolyticus; conditions: sub-inhibitory concentration of extract, 24 hr incubation
# Protocol: The effect of NEs on bacterial cells was determined by culturing VPAHPND in medium containing NEs and examining the cells under a scanning electron microscope (SEM). The subinhibitory concentration of extracts used in the medium was MIC. The control treatment was VPAHPND grown in the presence of fish oil. Samples were fixed by following a protocol described by Lv et al. (2011) and McQuade et al. (2012) with some modifications. Briefly, 25 μl of 8% glutaraldehyde solution (Electron Microscopy Sciences, Hatfield, Pa.) was added to 200 μl of the overnight culture of bacteria. After 40 minutes of incubation at room temperature, samples were washed three times with 1× phosphate-buffered saline (PBS, pH 7.0). Subsequently, samples were washed with water and stained with 1% osmium tetroxide (Ted Pella, Inc., Redding, Ariz.). Finally, samples were washed in water and dehydrated in a series of ethanol solutions with concentrations ranging from 30% to 90% (v/v). The slides with fixed bacterial cells were mounted, sputter-coated in gold under vacuum, and examined using a […] field emission scanning electron microscope (ANATECH, USA).
# [4] = tested on: AHPND-causing Vibrio parahaemolyticus; experiment: AHPND bioassay: NE05 in diet, immersion challenge (clinical signs, survival, mortality); assay type: in vivo, Penaeus vannamei; conditions: for Percent survival: 7 days post-challenge, three independent experiments
# Protocol: The efficacy of NE05 in preventing AHPND was evaluated by using an in vivo assay. The NE05 was mixed with a commercially pelleted shrimp diet at concentrations of 20% and 10% (v/w). Commercial diets containing 20% and 10% fish oil were used as controls. The feed was prepared using a standard feed maker (CORNING, Model LSE) and dried in a chemical hood for 24 h at room temperature. The feed was coated with fish oil dried for an additional 12 h to prevent the smell and increase palatability.
# Ten 37 L glass tanks were used in this study. Seawater was prepared following a SOP used in Aquaculture Pathology Laboratory. Approximately 800 g of sea salt (Marinex, Baltimore, Md.) was mixed with 30 L of tap water to get 20-25 ppt of salinity. After the marine salt was dissolved, salinity was checked using a refractometer (SPER SCIENTIFIC, Model #300011). The salinity level of the water was adjusted by adding water until the range needed for the study was reached (20-25 ppt). Throughout the experiment, the room temperature was maintained at 29±2 degrees C. using a heater. Before starting the bioassay, the tanks were held for two days without any animal to equilibrate the water temperature to that of the room. The water temperature was maintained at 29±2 degrees C. Each tank was equipped with an air pump having an air capacity of 2.5 liters/min connected to two air stones. One air stone was directly immersed into the tank, and the other one was connected to the filters. Disinfected weight was kept above each air stone. The heater was kept inside the room during the experiment.
# (§2) Specific Pathogen Free shrimp (P. vannamei) (avg. weight 1-2 g) were stocked at a density of 10 shrimp/tank. In total there were two treatments and two controls: shrimp fed diet containing 20% NE05, 10% NE05, a positive and a negative control (shrimp fed diet containing fish oil). Each treatment and control had two replicates. Animals in all treatments except the negative control were subjected to an immersion challenge with V. parahaemolyticus. In the negative control tanks, sterilized TSB+ medium was added instead of bacterial suspension. Throughout the experiment, shrimps were fed corresponding diets daily at 5% of their body weight. The experiments were repeated three times. On day 6 post-feeding of the experimental diets, shrimps were challenged with V. parahaemolyticus at a dose of 10^6 CFU/ml (500 ml of V. parahaemolyticus culture grown for 24 h, OD600 of 5). After the bacterial challenge, tanks were monitored several times a day, and mortalities were recorded, and dead shrimps were removed immediately. Hepatopancreas tissue from moribund shrimp was dissected, half of the tissue was preserved in Davidson's fixative for histopathology, while the remaining half of hepatopancreas was stored at −20 degrees C. for PCR detection of V. parahaemolyticus. […] At the termination of the bioassay, average mortality for each treatment was calculated, and one-way ANOVA was performed to determine any significant difference among different treatments. A (p-value <0.05) between treatments was considered significant.
# [5] = tested on: AHPND-causing Vibrio parahaemolyticus; experiment: Histopathology (H&E) of hepatopancreas of shrimp from the AHPND bioassay; assay type: in vivo, Penaeus vannamei
# Source text: as §2
# Moribund shrimp were fixed in Davidson's alcohol-formalin-acetic acid (AFA). The samples were processed, embedded in paraffin, and sectioned ([…]) following a standard protocol (Lightner, 1996). The sections were stained with hematoxylin and eosin (H&E) and examined using a light microscope for histological lesions of AHPND (Tran et al., 2013).
Molecule,Average diameter of inhibitory zone (mm) CNE 1/16 [1],Average diameter of inhibitory zone (mm) CNE ¼ [1],Average diameter of inhibitory zone (mm) CNE ½ [1],Average diameter of inhibitory zone (mm) CNE ⅛ [1],MIC assay results: effective concentration (Example 1) [2],MIC (Example 2) [2],Extract concentration at which bacterial count is zero / no survivors [2],Bacterial cell morphology under SEM [3],further results
"CC(C)=CCCC(C)=CC=O [NE01, Citral]",7.48 ± 0.42 mm,12.53 ± 0.50 mm,17.75 ± 1.4 mm,9.36 ± 0.58 mm,0.015 v/v %,0.15 v/v %,0.15 % (v/v),a few irregular wrinkled cells but also had a lot of intact cells,"OD600 ([2]; extract concentration 0.0983%): 2.5; OD600 ([2]; extract concentration 0.15% (v/v)): zero; Bacterial count ([2]; 48 h, extract concentration 0.0983% (v/v)): 2.5×10^9 CFU/ml"
"Cc1ccc(C(C)C)cc1O [NE03, Cavacrol]",8.53 ± 0.16 mm,16 ± 0.77 mm,20.51 ± 0.97 mm,13.53 ± 0.42 mm,0.007 v/v %,0.075 v/v %,0.075 % (v/v),non-intact lysed cells with possible leaking out of cytoplasmic constituents; also recorded: disruption of cell surface and leaking of cytoplasmic components; also recorded: affected bacterial cell wall resulting in its disruption and leaking of intracellular components,
"O=C/C=C/c1ccccc1 [NE05, Trans Cinnamaldehyde]",9.36 ± 0.32 mm,18.66 ± 0.98 mm,26±1.8 mm,14.03 ± 0.80 mm,0.002 v/v %,0.02 v/v %,0.02 % (v/v),"extensive cell wall damage, and possible leaking out of intracellular components; also recorded: disruption of cell surface and leaking of cytoplasmic components; also recorded: affected bacterial cell wall resulting in its disruption and leaking of intracellular components","Mortality by day 3 ([4]; diet containing NE05-10%): 85%; Time at which mortality began post-challenge ([4]; diet containing NE05-10%): 10 h; Percent survival ([4]; diet containing NE05-10%): 15%; Mortality during the first 24 h post-challenge ([4]; diet containing NE05-20%): did not show mortality; Percent survival ([4]; diet containing NE05-20%): 100% and 93%; Mortality by day 2 ([4]; diet containing NE05-20%, thereafter no mortality): 4%; Gross clinical signs of AHPND ([4]; shrimp fed diet containing NE05 at 10%, immersion challenge): appeared clinically similar to the animals fed commercial diet; also recorded: HP appeared pale and gut empty; Histopathology of hepatopancreas ([5]; NE05-10% treatment, 24 h post-challenge): Mild sloughing of epithelial cells in hepatopancreatic tubule; Histopathology of hepatopancreas ([5]; NE05-10% treatment, 48 h post-infection): hallmark of AHPND infection; Histopathology of hepatopancreas ([5]; NE05-20% treatment, 24 & 48 h post-challenge): did not show any lesions that are considered pathognomonic of AHPND; also recorded: showed no lesions that are pathognomonic of AHPND; H&E histological section of HP tissue (FIGS. 19E-19F) ([5]; diet containing NE05-10%, challenged with AHPND): Terminal phase lesions displaying sloughing of necrotic HP tubule epithelial cells; H&E histological section of HP tissue (FIGS. 19G-19H) ([5]; diet containing NE05-20%, challenged with AHPND): Hepatopancreatic tubule appear similar to healthy animals"
Doxycycline Hyclate [reference compound],,,,,,,,,"Average diameter of inhibitory zone (mm), antibiotic reference standard ([1]; Doxycycline Hyclate 10 μg): 24.43±0.57 mm"
